Some results are limits rather than exact numbers.

The target in experiment [1] is recombinant RORγ Ligand Binding Domain (LBD) protein (Homo sapiens (Human), UniProt P51449). The experiment is described as follows: Radio-Ligand RORγ Binding Assay (Assay 1). The following applies: read-out: RORγ Binding Ki Range* (nM) (Assay 1). On the procedure: Radio-Ligand ROR ? Binding Assay (Assay 1)
The plate was shaken at 700 rpm for 20 min and incubated for 10 min at rt, after which 40 μL of poly-Lys YSi SPA beads (PerkinElmer, Cat. # RPNQ0010) were added to achieve 50 μg of the beads per well. The plate was incubated on an orbital shaker for 20 min and then for 10 min without agitation at rt. SPA signal for tritium beta radiation was registered on PerkinElmer Microbeta plate reader. […] The percent inhibition vs. concentration data were fit into a four-parameter model, and IC50 values were calculated from the fit as the concentrations corresponding to the inflection points on the dose-response curves.

Experiment [2] has as its system IL-17A production. The experiment is described as follows: Human Whole Blood Assay (Assay 3). It counts as cell-based. The following applies: IL-17A secretion, CytoStim, 48 h, 50% blood/media. The protocol: Human Whole Blood Assay (Assay 3)
Compounds of the invention were tested in the human whole blood assay to measure their effects on IL-17A production as determined by cytokine secretion into 50% blood/media supernatant. Mixtures of sodium heparinized whole blood (isolated from healthy human donors) and the T cell activator CytoStim, in the presence or absence of compound, were plated in sterilized, tissue culture-treated 24-well plates. Specifically, the mixtures in each well were as follows: (1) 500 μL of whole blood, (2) 250 μL of compound diluted into RPMI-1640 media containing 10% HyClone™ FCS (Thermo Fisher Scientific, Waltham, Mass.), Gibco® Pen/Strep and Gibco® NEAA (Life Technologies, Grand Island, N.Y.), and (3) 250 μL of CytoStim (Miltenyi Biotech, Germany) diluted to a final concentration of 10 μL/mL in complete cell culture medium.
IL-17A cytokine expression was determined using 25 μL of the transferred supernatant diluted with 25 μL of Diluent 43 from the Human IL-17A V-PLEX™ kit (cat. # K151RFD-4, Meso Scale Discovery, Rockville, Md.). The assay was performed according to the manufacturer's instructions using included reagents. The IL-17A V-PLEX™ plates were read using the Meso Scale Discovery Imager (Model 1200).

The target of experiment [3] is full-length RORγt in Jurkat cells (Homo sapiens (Human), UniProt P51449).
Sequence of full-length RORγt in Jurkat cells (P51449 other isoform, or with tags, fused parts or gaps): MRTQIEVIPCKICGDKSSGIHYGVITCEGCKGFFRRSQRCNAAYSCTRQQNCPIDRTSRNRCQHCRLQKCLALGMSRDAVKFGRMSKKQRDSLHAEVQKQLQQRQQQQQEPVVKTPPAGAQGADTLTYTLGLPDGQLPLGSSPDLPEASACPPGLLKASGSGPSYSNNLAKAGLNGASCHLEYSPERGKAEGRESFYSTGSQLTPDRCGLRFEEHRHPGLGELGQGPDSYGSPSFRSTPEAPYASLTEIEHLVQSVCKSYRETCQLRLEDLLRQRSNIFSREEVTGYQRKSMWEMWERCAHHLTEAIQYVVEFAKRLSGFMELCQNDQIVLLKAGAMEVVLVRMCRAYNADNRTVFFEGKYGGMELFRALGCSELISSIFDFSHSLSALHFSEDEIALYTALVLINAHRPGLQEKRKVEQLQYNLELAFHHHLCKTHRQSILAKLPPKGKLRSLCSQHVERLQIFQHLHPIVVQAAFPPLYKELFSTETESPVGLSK
Protocol: ROR ? t 5×RORE Assay in Jurkat Cells (Assay 2)
Compounds of the present invention were tested for ROR ? inverse agonist activity in a cell-based, transcriptional activity assay. […] Luciferase activity in the conditioned supernatants was determined with NanoGlo® assay reagents (Promega, Cat.# N1130).

Sequence of recombinant RORγ Ligand Binding Domain (LBD) protein (P51449 269-508): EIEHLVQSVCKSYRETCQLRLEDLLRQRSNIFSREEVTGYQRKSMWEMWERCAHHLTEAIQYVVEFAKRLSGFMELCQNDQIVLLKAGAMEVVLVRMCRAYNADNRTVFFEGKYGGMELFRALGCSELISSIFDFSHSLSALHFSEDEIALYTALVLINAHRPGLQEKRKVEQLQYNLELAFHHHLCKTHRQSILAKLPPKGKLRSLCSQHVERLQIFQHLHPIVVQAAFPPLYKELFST

Regarding `CCS(=O)(=O)c1ccc([C@H](CO)NC(=O)c2cnc3c(c2)CN(C[C@H]2CC[C@H](C(F)(F)F)OC2)[C@H]3C(C)C)nc1` [Compound 4], the Ki in experiment [1] is less than 100 nM. Also, the IC50 in experiment [2] was less than 100 nM; in experiment [3] it was less than 0.1 µM.

As usually defined, the Ki is the dissociation constant of the complex between target and ligand, obtained from inhibition or displacement. Broadly, the IC50 is the concentration needed to halve the response being measured.
